Measured values: patent US9657273B2, “Method for suppressing teratoma formation via selective cell death induction in undifferentiated human-induced pluripotent stem cells” (Industry-University Cooperation Foundation Sogang University, priority 2012, dated 2017)
“Also recorded” adds a separate entry of the source.

Assays:
[1] = test system: HASMC and iPS-SMC3; assay: α-SMA expression by immunofluorescence; assay type: cell-based, human; conditions: 50 μM quercetin, 24 hours
Description: Human aortic smooth muscle cells (HASMC) and human induced pluripotent stem cells-derived differentiated cells, i.e., human induced pluripotent stem cells-derived smooth muscle cells (iPS-SMC) were cultured in an SMCM medium (ScienCell research laboratories, cat #1101) as described in the reference (Lee et al., 2010). As the first antibody used in IFA was anti-α-smooth muscle actin (α-SMA) (Dako Inc, Carpinteria, Calif.). Images were obtained using Axioscope A1 microscope (Carl Zeiss) and analyzed.

[2] = test system: mixed cell population of human induced pluripotent stem cells-smooth muscle cells; assay: Cleaved caspase-3 immunostaining in 1:1 mixed iPS / iPS-derived smooth muscle cell culture; assay type: cell-based; conditions: 50 μM quercetin, 24 hours; 1:1 mixture of iPS and iPS-derived SMC
Description: The scale bar denotes 100 μm. […] In order to confirm the functions of smooth muscle cells differentiated-derived from human induced pluripotent stem cells, the population, which was cultured by mixing human induced pluripotent stem cells and the smooth muscle cells differentiated-derived from the human induced pluripotent stem cells in a 1:1 ratio, was treated with 50 μM quercetin for 24 hours, and examined the cleavage type caspase-3 positive population in the population of SMA-positive population or SSEA-4-positive population.

[3] = test system: human induced pluripotent stem cells (iPS); assay: Immunoblotting of apoptosis marker proteins in cell lysate; assay type: cell-based; conditions: 50 μM quercetin, 24 hours
Excerpt: The antibodies used in the immunoblotting assay and anti-PARP1 (SC-7150) and anti-β-actin (SC-47778) were purchased from Santa Cruz Biotech Inc. (CA, USA). Additionally, anti-caspase-9 (Cat#9502) and anti-cleaved caspase-3 (Cat#9661) purchased from Cell Signaling Technology (Danvers, Mass., USA). In order to confirm the selective apoptosis of undifferentiated human induced pluripotent stem cells by quercetin, human induced pluripotent stem cells (iPS) derived from human aortic smooth muscle cells (HASMC), HASMC, smooth muscle cell no. 1 differentiated-derived from iPS (iPS-SMC-1), and smooth muscle cell no.

[4] = test system: iPS-SMC1 and iPS-SMC3; assay: Measurement of intracellular calcium (Fura-2) after ATP or 75 mM K+; assay type: cell-based, human; conditions: 50 μM quercetin, 24 hours, then ATP or 75 mM potassium solution
Description: In order to confirm the functions of the differentiated cells which were completely differentiated into smooth muscle cells, an intracellular calcium reaction was used. As described in the reference article (Lee et al., 2006), intracellular or extracellular calcium transients were induced using pharmacological reagents, ATP or 75 mM K^+ solution, and the values were numerized in fluorescence using a calcium indicator Fura-2 (Molecular Probes, Eugene, Oreg.), and imaged.

[5] = test system: undifferentiated induced pluripotent stem cells; assay: Selective cell death of undifferentiated induced pluripotent stem cells (summary statement); assay type: cell-based, human; conditions: treatment of induced pluripotent stem cells; differentiated cells not affected
Excerpt: The present inventors have made intensive efforts to develop a method for obtaining pure differentiated cells from induced pluripotent stem cells, and in particular, a method for obtaining only the pure differentiated cells by removing the possibility of a tumor formation by the undifferentiated induced pluripotent stem cells causing teratoma formation.

[6] = test system: human induced pluripotent stem cells (iPS); assay: Apoptosis-specific cell phenotype observed under microscope; assay type: cell-based
Description: Human induced pluripotent stem cells (iPS) derived from human aortic smooth muscle cells (HASMC) was subcultured in an ESC medium (DMEM/F/12 supplemented with a 20% KnockOutTM serum replacement, 0.1% gentamycin, 1% non-essential amino acids, 0.1% β-mercaptoethanol and 4 ng/ml bFGF) containing mouse embryonic fibroblasts (MEF) treated with mitomycin-C as supporting cells Lee, T. H., et al., (2010). Functional recapitulation of smooth muscle cells via induced pluripotent stem cells from human aortic smooth muscle cells. Circ Res 106, 120-128). For the pretreatment of quercetin and YM-155 of the present invention, iPS was cultured in a matrigel-coated 60 mm dish containing […]1 medium (29106, Stem Cell Technology) to induce them into smooth muscle cells (SMC). Human aortic smooth muscle cells (HASMC) and human induced pluripotent stem cells-derived differentiated cells, i.e., human induced pluripotent stem cells-derived smooth muscle cells (iPS-SMC) were cultured in an SMCM medium (ScienCell research laboratories, cat #1101) as described in the reference (Lee et al., 2010). In order to confirm the selective apoptosis of undifferentiated human induced pluripotent stem cells by quercetin, human induced pluripotent stem cells (iPS) derived from human aortic smooth muscle cells (HASMC), HASMC, smooth muscle cell no. 1 differentiated-derived from iPS (iPS-SMC-1), and smooth muscle cell no. […]

SMILES: O=c1c(O)c(-c2ccc(O)c(O)c2)oc2cc(O)cc(O)c12 [quercetin, 2-(3,4-dihydroxyphenyl)-3,5,7-trihydroxy-4H-chromen-4-one]
- expression of α-SMA (immunofluorescence) [1]: the expression of α-SMA was confirmed
- cleavage type caspase-3 positive population in SSEA-4-positive vs SMA-positive population [2]: excellent cleavage type caspase-3 positive population within the SSEA-4 positive population
- apoptosis marker proteins: cleavage of Parp-1, cleaved caspase-3 and caspase-9 [3]: exhibited the expression of Parp-1 cleavage (T type), cleavage types of caspase-3 and caspase-9
- intracellular calcium response (function as smooth muscle cells) [4]: confirmed the functions as smooth muscle cells
- selective killing of undifferentiated induced pluripotent stem cells [5]: only the undifferentiated induced pluripotent stem cells were effectively and selectively killed
- apoptosis-specific phenotypic cell type ([6]; 50 μM quercetin, 24 hours, iPS vs HASMC, iPS-SMC-1, iPS-SMC-3): exhibited a distinct apoptosis-specific cell phenotype; also recorded: distinctive apoptosis-specific phenotypic cell type was discovered
- degree of apoptosis (apoptosis-specific phenotypic cell type) at various concentrations ([6]; various concentrations of quercetin (QC), iPS): concentration-dependent
